In brackets after ≈: the same amount, converted by molar mass.
How the values were obtained:
[1] = Octanol-water partition co-efficient, log P of the compound; format: physicochemical
[2] = Solubility of the compound in water; format: physicochemical
Tetranychus kanzawai = assay: Acaricidal activity against Tetranychus kanzawai at developmental stages; format: functional
Panonychus citri = assay: Acaricidal activity against Panonychus citri at developmental stages; format: functional
Tetranychus urticae [3] = assay: Acaricidal activity against Tetranychus urticae (two-spotted spider mite) adult; format: functional
Tetranychus urticae [4] = assay: Acaricidal activity against Tetranychus urticae (two-spotted spider mite) larvae; format: functional

COCCOC(=O)C(C#N)(C(=O)c1ccccc1C(F)(F)F)c1ccc(C(C)(C)C)cc1 (racemic) [CYFLUMETOFEN]
logP [1]: 4.3
solubility [2]: 0.0281 µg/mL (≈ 0.0628 µM)
LC50 (Tetranychus kanzawai): < 5 µg/mL
LC50 (Panonychus citri): < 5 µg/mL
LC50 (Tetranychus urticae [3]): 4.8 µg/mL (≈ 10.7 µM)
LC50 (Tetranychus urticae [4]): 0.9 µg/mL (≈ 2.01 µM)
